Data on 4 compounds can be found in patent publication US10610538B2, “Pradimicin derivatives for the treatment of diseases caused by kinetoplastids” (KATHOLIEKE UNIVERSITEIT LEUVEN, priority 2013, dated 2020).

Converted amounts (≈) assume the structure as drawn. Where two headings read alike, the source gives them in different places.

One test has as its system T. cruzi trypomastigotes. Put plainly: Lysis of T. cruzi trypomastigotes (resazurin). Type of test: cell-based, Trypanosoma cruzi Tulahuen strain C4. The note with it: 24 h, half-maximal lysis. As to the method: (§1) Activity of pradimicin A (PRM-A) and S (PRM-S) against T. cruzi was studied in epimastigote and trypomastigote forms of T. cruzi Tulahuen strain C4.
(§2) In the case of epimastigote forms, 2×10^5 parasites were seeded in a 96-wells plate (100 μL) and incubated 3 days with different drug concentrations between 0.0625 μg·mL^−1 and 100 μg·mL^−1 in liver infusion tryptose (LIT) medium supplemented with 10% fetal calf serum at 28° C. In the case of trypomastigotes, 1×10^5 parasites were seeded in a 96-well plate (100 μL) and incubated with different drug concentrations between 0.006 μg·mL^−1 and 12.5 μg·mL^−1 for 24 h in RPMI 1640 medium supplemented with 10% FBS, 2 mM L-glutamine, 100 U·mL^−1 penicillin and 100 μg·mL^−1 streptomycin at 37° C. and 5% CO2. Cell viability of epimastigotes and lysis percentage of trypomastigotes were determined by adding 10 μL of resazurin (0.11 mg·mL^−1 in PBS) and measuring fluorescence at 570/590 nm of excitation/emission wavelength after 2 h of incubation using a Spectramax Gemini EM microplate fluorometer (Molecular Devices Cooperation, Sunnyvale, Calif., USA). EC50 or 50% lysis values were defined as the drug concentration required for half-maximal inhibition of the cellular growth rate or half-maximal lysis and were calculated by nonlinear regression analysis.
A general note: Resazurin is reduced to fluorescent resorufin, in cell work by metabolically active cells.

The test system of the next test is T. brucei BSF. Put plainly: In vitro growth inhibition of T. brucei bloodstream forms. Type of test: cell-based, Trypanosoma brucei brucei. As to the method: Trypanosoma brucei brucei single-marker bloodstream forms (BSF) (antigenic type 1.2, MITat 1.2, clone 221a) strain 427, harbouring T7 RNA polymerase and the tetracycline repressor (Wirtz et al., 1999) and Trypanosoma brucei rhodesiense EATRO3 ETat1.2 TREU164 (Turner et al., 2004) were used in this study. Bloodstream forms were cultured at 37° C. and 5% CO2 in HMI-9 supplemented with 10% (v/v) or 20% fetal bovine serum, respectively. The non-peptidic CBAs pradimicin A (PRM-A, derived from Actinomadura hibisca) (Oki et al., 1988) and pradimicin S (PRM-S, derived from Actinomadura spinosa strain A A08 51) (Saitoh et al., 1993) were tested for inhibition of parasite growth.

Another test concerns L. donovani amastigotes. Briefly: In vitro activity against intracellular L. donovani amastigotes in mouse peritoneal macrophages. In kind it is cell-based, Leishmania donovani MHOM/ET/67HU3. As to conditions: 72 h. As to the method:
(§3) Activity of pradimicin A (PRM-A) and S (PRM-S) was tested against promastigote and amastigote forms of L. donovani MHOM/ET/67HU3.
To determine activity against the amastigote form, 1×10^5 mouse peritoneal macrophages were seeded in 24-well tissue culture chamber slides using RPMI 1640 medium supplemented with 10% HIFBS, 2 mM L-glutamine, 100 U·mL-1 penicillin and 100 μg·mL^−1 streptomycin. Compounds were added and cells were then infected with late-stage promastigotes at a macrophage/parasite ratio of 1:10. After 8 h of infection at 35° C. and 5% CO2, extracellular parasites were removed by washing with serum-free medium, and infected macrophage cultures were incubated with different CBA concentrations for 72 h in RPMI 1640 medium plus 10% HIFBS at 37° C. with 5% CO2. After that, macrophages were fixed with 2.5% p-formaldehyde in PBS for 30 min at 4° C., permeabilized with 0.1% Triton X-100 in PBS for 30 min, and incubated with Gold antifade reagent plus DAPI in order to detect the intracellular parasites. Drug activity was determined from the percentage of infected cells and from the number of amastigotes per cell in drug-treated versus non-treated cultures.

The next test deals with Macrophages. Briefly: Toxicity in macrophages. Type of test: cell-based, mouse.
For another test, the system named is T. cruzi epimastigotes. Briefly: In vitro activity against T. cruzi epimastigotes (resazurin viability). Type of test: cell-based, Trypanosoma cruzi Tulahuen strain C4. As to conditions: 3 days. As to the method:
as §1, §2

The test system of test [1] is L. donovani promastigotes. Put plainly: In vitro activity against L. donovani promastigotes (proliferation, cell counting). The note with it: 48 h. Type of test: cell-based, Leishmania donovani MHOM/ET/67HU3. Here is the method:
as §3
In the case of the promastigote forms, 2.5×10^4 parasites were incubated in 24-well plates (1 mL) for 48 h at different drug concentrations between 0.391 μg·mL^−1 and 50 μg·mL^−1 in RPMI 1640 modified supplemented with 20% FBS, 2 mM L-glutamine, 100 U·mL^−1 penicillin and 100 μg·mL^−1 of streptomycin. The proliferation was determined by counting the number of cells using a Z1 Coulter counter. EC50 values were calculated by nonlinear regression analysis.

For another test, the system named is T. b. rhodesiense EATRO3. Briefly: In vivo activity of PRM-S in BALB/c mice infected with T. b. rhodesiense EATRO3. As to conditions: for MRD (mean relapse day) / MSD (mean survival day) / cured/infected: BALB/c; for cured/infected: from day 3 post-infection. The source says: (§4) In order to establish the trypanocidal capacity of PRM-S, C57BL/6J or BALB/c mice were infected with T. b. brucei 427 or T. b. rhodesiense EATRO3 strains, respectively, and infection was allowed to proceed for 3 days before treatment with PRM-S, one dosage per day for 4 days.
(§5) Female C57BL/6 or BALB/c mice (Jackson Laboratories, Bar Harbor, Me.) were split in groups containing between three and six mice (6-8 weeks old), and infected via intraperitoneal route with 5×10^3 (T. b. brucei strain 427) or 1×10^4 (T. b. rhodesiense EATRO3) trypanosomes, respectively. Different dosages of PRM-S ([…] and 50 mg·kg^−1) were administered once/day intraperitoneally (200 μL) for 4 days starting on the third day post-infection, in 0.5% w/v hydroxypropylmethylcellulose (HPMC), 0.4% v/v Tween 80 and 0.5% v/v benzyl alcohol used as dosage formulation. One group of mice in each case was also infected and treated with the vehicle as control, Parasitaemia was monitored daily in a haematocytometer under a microscope from the third day post-infection and after tail blood extraction.

Another test relates to T. b. brucei 427. Put plainly: In vivo activity of PRM-S in C57BL/6J mice infected with T. b. brucei 427. The note with it: for MRD (mean relapse day) / MSD (mean survival day) / cured/infected: C57BL/6J; for cured/infected: from day 3 post-infection.
Source text: as §4, §5

Setting [2] is: read-out: EC50 (% Lysis) T. cruzi.
Where [3] appears, read: 4 × 25 mg·kg^−1 i.p., listed as PRMS.
[4] abbreviates: 4 × 50 mg·kg^−1 i.p., listed as PRMS.

By EC50 is commonly meant the concentration that produces a half-maximal response. With `O=C(Cn1ccnc1[N+](=O)[O-])NCc1ccccc1` [Benznidazole, reference compound], the EC50 with T. cruzi trypomastigotes (Trypanosoma cruzi, read-out: EC50 (% Lysis) T. cruzi) amounted to 5200 ± 200 nM; in the test on T. cruzi trypomastigotes (Trypanosoma cruzi, read-out: EC50 (% Lysis) T. cruzi (μg · mL^−1)) it was 1.35 ± 0.05 µg/mL.
Consider `CN[C@@H]1[C@H](O[C@@H]2OC[C@@H](O)[C@H](O)[C@H]2O)[C@@H](O)[C@H](O[C@H]2c3cc(C)c(C(=O)N[C@H](C)C(=O)O)c(O)c3-c3c(cc4c(c3O)C(=O)c3cc(OC)cc(O)c3C4=O)[C@@H]2O)O[C@@H]1C` [PRM-A, pradimicin A], for which the concentration giving a half-maximal response (EC50) in the test with T. brucei BSF was 3.8 ± 0.05 µM; in the test with L. donovani amastigotes, 800 ± 100 nM; in the test with Macrophages, more than 100 µM; with T. cruzi trypomastigotes (setting [2]), 1200 ± 300 nM; with T. cruzi epimastigotes, 28.1 ± 1.3 µM; in test [1], 21.4 ± 0.8 µM. In addition, the “EC50 (μg · mL^−1)” value is 3.20 ± 0.04 µg/mL (≈ 3.81 µM) in the test on T. brucei BSF; 0.7 ± 0.1 µg/mL (≈ 0.833 µM) with L. donovani amastigotes; more than 100 µg/mL in the test on Macrophages; 23.6 ± 1.1 µg/mL (≈ 28.1 µM) in the test on T. cruzi epimastigotes; 18.0 ± 0.7 µg/mL (≈ 21.4 µM) in test [1]. Further, the “EC50 (% Lysis) T. cruzi” value in the test with T. cruzi trypomastigotes stood at 1.0 ± 0.3 µg/mL (≈ 1.19 µM).
Take `CN[C@@H]1[C@H](O[C@@H]2O[C@H](CO)[C@@H](O)[C@H](OS(=O)(=O)O)[C@H]2O)[C@@H](O)[C@H](O[C@@H]2c3cc(C)c(C(=O)N[C@H](CO)C(=O)O)c(O)c3-c3c(cc4c(c3O)C(=O)c3cc(OC)cc(O)c3C4=O)[C@H]2O)O[C@@H]1C` [PRM-FS, Pradimicin-FS]: the EC50 turned out to be 13.5 ± 0.8 µM in the test with T. brucei BSF and 50.8 ± 2.1 µM in test [1]. The results for the “EC50 (μg · mL^−1)” value (with T. brucei BSF; in test [1]) were 13.0 ± 0.7 µg/mL (≈ 13.4 µM) and 49.1 ± 2.0 µg/mL (≈ 50.8 µM), respectively.
Regarding `CN[C@@H]1[C@H](O[C@@H]2O[C@H](CO)[C@@H](O)[C@H](OS(=O)(=O)O)[C@H]2O)[C@@H](O)[C@H](O[C@H]2c3cc(C)c(C(=O)N[C@H](C)C(=O)O)c(O)c3-c3c(cc4c(c3O)C(=O)c3cc(OC)cc(O)c3C4=O)[C@@H]2O)O[C@@H]1C` [PRM-S, pradimicin S], the EC50 in the test with T. brucei BSF is 6.44 ± 0.08 µM; in the test with L. donovani amastigotes, 2300 ± 300 nM; in the test with Macrophages, more than 100 µM; in the test with T. cruzi trypomastigotes (setting [2]), 1400 ± 300 nM; with T. cruzi epimastigotes it was 19 ± 2.6 µM; in test [1], 22.9 ± 1.9 µM. In addition, the “EC50 (μg · mL^−1)” value with T. brucei BSF is 5.85 ± 0.08 µg/mL (≈ 6.15 µM); in the test with L. donovani amastigotes, 2.2 ± 0.2 µg/mL (≈ 2.31 µM); in the test on Macrophages, more than 100 µg/mL; in the test on T. cruzi epimastigotes, 17.3 ± 2.4 µg/mL (≈ 18.2 µM); in test [1], 21.8 ± 1.9 µg/mL (≈ 22.9 µM). For the same compound, the “mice in which parasitaemia appeared subsequently (relapse)” value in the test on T. b. rhodesiense EATRO3 (25 mg·kg^−1) is on record as “three of the five mice”. For the same compound, the “MRD (mean relapse day)” value with T. b. rhodesiense EATRO3 (4 × 25 mg·kg^−1 i.p.), with T. b. rhodesiense EATRO3 (setting [3]), with T. b. brucei 427 (4 × 25 mg·kg^−1 i.p.) and in the test with T. b. brucei 427 (setting [3]) was 10.7 ± 0.6 days in each case. Also, the “MSD (mean survival day)” value with T. b. rhodesiense EATRO3 (4 × 25 mg·kg^−1 i.p.) was 44.4 ± 41.7 days; in the test with T. b. rhodesiense EATRO3 (setting [3]) it was 44.4 ± 41.7 days; with T. b. rhodesiense EATRO3 (4 × 50 mg·kg^−1 i.p.), more than 90 days; in the test with T. b. rhodesiense EATRO3 (setting [4]), more than 90 days; in the test on T. b. brucei 427 (4 × 25 mg·kg^−1 i.p.) it was 18.0 ± 7 days; in the test on T. b. brucei 427 (setting [3]), 18.0 ± 7 days. Further, the “MSD (mean survival day)” value in the test with T. b. brucei 427 (4 × 50 mg·kg^−1 i.p.) and in the test on T. b. brucei 427 (setting [4]) was more than 90 days each time. The cured/infected in the test on T. b. rhodesiense EATRO3 (4 × 25 mg·kg^−1 i.p.) is on record as 2/5; with T. b. rhodesiense EATRO3 (4 × 50 mg·kg^−1 i.p.), 5/5; with T. b. brucei 427 (4 × 25 mg·kg^−1 i.p.) it was 0/3; with T. b. brucei 427 (4 × 50 mg·kg^−1 i.p.), 6/6. For the same compound, the parasitaemia entry was “drastically reduced” in the test with T. b. rhodesiense EATRO3 (both dosages (25 and 50 mg·kg^−1), after the first administration); “dramatic decrease of parasitaemia” with T. b. brucei 427 (after the first dose of 50 mg·kg^−1); “dramatic decrease of parasitaemia” in the test with T. b. brucei 427 (after the third dose of 25 mg·kg^−1). For the same compound, the “EC50 (% Lysis) T. cruzi” value in the test with T. cruzi trypomastigotes was determined as 1.2 ± 0.3 µg/mL (≈ 1.26 µM).
